Source: patent publication US20230090389A1 (Novartis AG, priority 2020, published 2023)

Key:
[1] = tested on: BRAF mutant human cell line xenograft HT29; assay: BRAF mutant human cell line xenograft HT29 in mice; assay type: in vivo; conditions: clinically relevant doses
[2] = tested on: six BRAFV600E CRC cell lines; assay: growth inhibition (CellTiter-Glo, 7 days) in six BRAF-mutant CRC cell lines; assay type: cell-based; conditions: seven treatment days; dabrafenib 30 nM, Compound A 300 nM, compound B 1.1 μM
Experimental: Compound A: selective ATP-competitive ERK1 and ERK2 kinase inhibitor. Compound B: selective allosteric inhibitor of SHP2. The compounds were dissolved in 100% DMSO and stored at -20° C. as 10 mM stock solutions.
In this study, we used six BRAF-mutant colorectal cancer cell lines. We acquired all the cell lines from ATCC and cultured them at 37° C. 5% CO2 in the recommended media conditions: Colo205, LIM2405, SNUC5 and SW1417: RPMI 1640 (Amimed, #1-41F01-I) supplemented with 1% L-glutamine, 10 mM HEPES (Amimed, #5-31F00-H), 1% Na-pyruvate (Amimed, #5-60F00-H), 10% FCS. MDST8: DMEM high glucose (Amimed, #1-26F01-I) supplemented with 1% L-glutamine, 10% FCS. RKO: EMEM (Amimed, #1-31S01-1) supplemented with 1% L-glutamine, 10% FCS. […]
Seven days after treatment initiation, cell growth was determined using CellTiter-Glo® (Promega, #G7573), which measures the amount of ATP in the well. […] Cell lysis was induced for two minutes on an orbital shaker, the plates were incubated at room temperature for ten minutes, and luminescence was recorded.
To summarize the data of this study clearly, the percentage of growth inhibition versus DMSO (% GI) at single compound concentrations were reported. […] Raw data values were normalized to day 0, the time of treatment initiation, so that the % GI could be calculated. […]

| Structure (SMILES) | anti-tumor response, T/C [1] | cell growth inhibition (% GI vs DMSO) [2] |
| --- | --- | --- |
| CNC[C@@H](NC(=O)c1ccc(-c2nc([C@H]3CC[C@H](O)[C@@H](F)C3)cnc2N)cc1F)c1cc(F)cc(Br)c1 [Compound A, 4-(3-amino-6-((1S,3 S,4S)-3-fluoro-4-hydroxycyclohexyl)pyrazin-2-yl)-N-((S)-1-(3-bromo-5-fluorophenyl)-2-(methylamino)ethyl)-2-fluorobenzamide] | 54 % T/C |  |
| CC(=O)Nc1cccc(-n2c(=O)n(C3CC3)c(=O)c3c(Nc4ccc(I)cc4F)n(C)c(=O)c(C)c32)c1 [Trametinib] | 48 % T/C |  |
| CC(C)(C)c1nc(-c2cccc(NS(=O)(=O)c3c(F)cccc3F)c2F)c(-c2ccnc(N)n2)s1 [Dabrafenib, N-(3-(5-(2-aminopyrimidin-4-yl)-2-(tert-butyl)thiazol-4-yl)-2-fluorophenyl)-2,6-difluorobenzenesulfonamide] | 59 % T/C |  |
| C[C@@H]1OCC2(CCN(c3cnc(Sc4ccnc(N)c4Cl)c(N)n3)CC2)[C@@H]1N [Compound B, (3S,4S)-8-(6-amino-5-((2-amino-3-chloropyridin-4-yl)thio)pyrazin-2-yl)-3-methyl-2-oxa-8-azaspiro[4.5]decan-4-amine] |  | no effect |
